Reference: patent publication US4272529A, “O-Alcoxycarbonylphenyl esters of anthranilic acid with therapeutical activity, method for their preparation and related pharmaceutical composition” (Simes S.p.A., priority 1979, dated 1981)
“And” between values parts separate entries of the source, which are not always exact repeats. Identical values can stand only once. Like-named read-outs stand apart in the source and are kept apart here.

How the values were obtained:
[1] = tested on: gastric tissues in the rat; assay: Acute gastric irritation in the rat (24 hours); format: in vivo; details: for Acute gastric irritation score: sum of scores (0-4) of three rats
Protocol: The following score scale was used for the 24 hour test (Table 6): 0=no lesion or hemorrhage 1=one or two light lesions with hemorrhage 2=some light lesions with hemorrhage 3=some lesions with hemorrhage. […] 4=very serious lesions with hemorrhage. There were used three rats per each dosage and the sum of the scores was made.

[2] = tested on: adjuvant induced arthritis in the rat; details: for Non injected paw, 18th day, inhibition % / Non injected paw, 18th day, volume: daily 14th to 18th day
Description: (§1) According to the second experimental model of adjuvant induced arthritis, there were studied the effects of the tested compounds in the disease already developed for 14 days; the substances were daily administered to groups of six rats for each dosage, from the 14th to the 18th day. […] There was also investigated the irritating property of the compound with respect to the gastric tissues in the rat.

[3] = tested on: adjuvant induced arthritis in the rat; assay: Adjuvant induced arthritis in the developing phase; format: in vivo, Lewis rats; details: for Paw volume, injected paw (3rd day) / Paw volume, non injected paw (14th day): unit assumed
Protocol: In the first one, relating to the developing arthritis (Table 4), groups of six Lewis rats have been tested for each dosage; a group was used as the control. Suspensions of the compound being tested were administered for 14 days, starting on the same day of the adjuvant inoculation (0.3 mg of Mycobacterium butyricum in 0.1 ml of mineral oil) in the plantar surface of the right rear paw. The body weights and the volumes of both paws were measured at the third and fourteenth days; the body weights were taken as the toxicity indexes; the paw volumes were used for the calculation of the percent inhibition of the swelling as determined by the adjuvant induced arthritis (D. Walz et al., J. Pharmacol. Exper. Therap., 178, 223, 1971).

[4] = tested on: carrageenin induced edema in the rat; assay: Inhibition of the carrageenin induced edema in the rat, further series (right rear paw vs left rear paw); format: in vivo; details: for Inhibition of the carrageenin induced edema: 3 hours after carrageenin
Protocol: The volume difference between the two paws was compared with the values of a control group. In this case too, the carrageenin was injected one hour after the oral administration of the substances being tested as an aqueous suspension; the edema was evaluated 3 hours after the carrageenin injection.

[5] = tested on: gastric tissues in the rat
Protocol: as §1
The substances were administered as an aqueous suspension and the animals ware sacrificed after either 4 or 24 hours; the stomachs were removed, opened, washed under tap water and examined.
As regards the 4 hour test (Table 7), the following scoring was used, relating to the hemorrhage degree:
1=one or two points of light hemorrhage
2=some points of light hemorrhage
4=very serious hemorrhages.
In this case too the sum of the scores of three rats for each dosage is reported.

Toxicity in the rat = details: in vivo
Protocol: In the rat too the toxicity of compound I is very low (4,500 mg/kg).

in vivo = details: mouse, po
mouse = details: in vivo
[6] = tested on: carragenin induced edema in the paw of rat; assay: Carragenin induced edema in the paw of rat, 50% inhibiting oral dose; format: in vivo; details: for ED50: 1 hour before carrageenin, 3 to 4 hours after carrageenin
Protocol: The edema was induced by injecting the carrageenin (0.1 ml of the 1% suspension in physiological solution) in the plantar aponeurosis of the rear paw of the rat one hour after the oral administration of the tested substances; the edema inhibition was evaluated, 3 to 4 hours after the carrageenin injection, from the difference between the volumes of the paw before and after the carragenin injection with respect to a group of control animals.

COc1ccc2c(c1)c(CC(=O)O)c(C)n2C(=O)c1ccc(Cl)cc1 [Indomethacin, indomethacin]
Acute gastric irritation score ([1]; 40 mg/kg os): 5 | Non injected paw, 18th day, inhibition % ([2]; 1 mg/kg os): 38% | Non injected paw, 18th day, volume ([2]; 1 mg/kg os): 2.06 | Inhibition %, injected paw (3rd day) ([3]; 1 mg/kg os): 39% | Inhibition %, non injected paw (14th day) ([3]; 1 mg/kg os): 32% | Paw volume, injected paw (3rd day) ([3]; 1 mg/kg os): 1.63 mL | Paw volume, non injected paw (14th day) ([3]; 1 mg/kg os): 1.55 mL | Inhibition of the carrageenin induced edema ([4]; 5 mg/kg os): 40%

COC(=O)c1ccccc1OC(=O)c1ccccc1Nc1cccc(C(F)(F)F)c1 [Compound I, N-m-trifluoromethyl-phenylanthranilate of O-methoxycarbonylphenyl]
Ulcerogenic action (in words) ([5]; rat, in vivo): highly less ulcerogenic than indomethacin and than acetylsalicylic acid | LD50 (Toxicity in the rat): 4500 mg/kg | Acute gastric irritation score ([1]; 25 mg/kg os): 1 | Acute gastric irritation score ([1]; 50 mg/kg os): 1 | Acute gastric irritation score ([1]; 100 mg/kg os): 2 | Acute gastric irritation score ([1]; 200 mg/kg os): 1 | Acute gastric irritation score ([1]; 400 mg/kg os): 1 | Acute gastric irritation score ([1]; 800 mg/kg os): 3 | Acute gastric irritation score ([1]; 1600 mg/kg os): 2 | Ulcerogenic / gastric irritating action (in words) ([1]; compared with reference drugs): highly less ulcerogenic than indomethacin and than acetylsalicylic acid | LD50 (in vivo): 9500 mg/kg and 22800 µmol/kg | Acute toxicity (in words) (mouse): relevantly less toxic than the reference substances as well as than their mixture | Non injected paw, 18th day, inhibition % ([2]; 5 mg/kg os): 27% | Non injected paw, 18th day, volume ([2]; 5 mg/kg os): 2.16 | Non injected paw, 18th day, inhibition % ([2]; 10 mg/kg os): 46% | Non injected paw, 18th day, volume ([2]; 10 mg/kg os): 1.82 | Non injected paw, 18th day, inhibition % ([2]; 25 mg/kg os): 100% | Non injected paw, 18th day, volume ([2]; 25 mg/kg os): 1.04 | Activity in already developed arthritis (in words) ([2]; compared with reference drugs): more active than acetylsalicylic acid and than phenylbutazone | Inhibition %, injected paw (3rd day) ([3]; 5 mg/kg os): 48% | Inhibition %, non injected paw (14th day) ([3]; 5 mg/kg os): 10% | Paw volume, injected paw (3rd day) ([3]; 5 mg/kg os): 1.5 mL | Paw volume, non injected paw (14th day) ([3]; 5 mg/kg os): 1.64 mL | Inhibition %, injected paw (3rd day) ([3]; 10 mg/kg os): 53% | Inhibition %, non injected paw (14th day) ([3]; 10 mg/kg os): 47% | Paw volume, injected paw (3rd day) ([3]; 10 mg/kg os): 1.53 mL | Paw volume, non injected paw (14th day) ([3]; 10 mg/kg os): 1.47 mL | Inhibition %, injected paw (3rd day) ([3]; 25 mg/kg os): 36% | Inhibition %, non injected paw (14th day) ([3]; 25 mg/kg os): 35% | Paw volume, injected paw (3rd day) ([3]; 25 mg/kg os): 1.79 mL | Paw volume, non injected paw (14th day) ([3]; 25 mg/kg os): 1.67 mL | Increase of the weight of the rats (in words) ([3]; index of poor toxicity): normal | Inhibiting effect in developing arthritis (in words) ([3]; rat, in vivo): strong inhibiting effect | Inhibition of the carrageenin induced edema ([4]; 1 mg/kg os): 0% | Inhibition of the carrageenin induced edema ([4]; 1.5 mg/kg os): 24% | Inhibition of the carrageenin induced edema ([4]; 5 mg/kg os): 21% | Inhibition of the carrageenin induced edema ([4]; 10 mg/kg os): 34% | Inhibition of the carrageenin induced edema ([4]; 25 mg/kg os): 42% | Inhibition of the carrageenin induced edema ([4]; 50 mg/kg os): 52% | ED30 ([4]; Rattus norvegicus, po, os, dose for which a 30% inhibition is obtained, read-out: ED30 (approximately)): ~8 mg/kg | Activity in carrageenin induced edema (in words) ([4]; rat, oral, compared with reference drugs): higher than that of aspirin and phenylbutazone, and lower than that of indomethacin | ED50 [6]: 176 mg/kg and 420 µmol/kg | Anti-inflammatory activity (in words) ([6]; in terms of molar doses): like that of the flufenamic acid and higher than that of the methyl salicylate and that of the equimolar mixture of methyl salicylate and of flufenamic acid

CCCCC1C(=O)N(c2ccccc2)N(c2ccccc2)C1=O [Phenylbutazone, phenylbutazone]
Non injected paw, 18th day, inhibition % ([2]; 25 mg/kg os): 46% | Non injected paw, 18th day, volume ([2]; 25 mg/kg os): 1.95 | Inhibition %, injected paw (3rd day) ([3]; 25 mg/kg os): 39% | Inhibition %, non injected paw (14th day) ([3]; 25 mg/kg os): 42% | Paw volume, injected paw (3rd day) ([3]; 25 mg/kg os): 1.66 mL | Paw volume, non injected paw (14th day) ([3]; 25 mg/kg os): 1.52 mL | Inhibition of the carrageenin induced edema ([4]; 50 mg/kg os): 34%

CC(=O)Oc1ccccc1C(=O)O [Acetylsalicylic acid, acetylsalicylic acid]
Acute gastric irritation score ([5]; 150 mg/kg os, 4 hours, sum of hemorrhage scores (0-4) of three rats): 7 | Non injected paw, 18th day, inhibition % ([2]; 100 mg/kg os): 37% | Non injected paw, 18th day, volume ([2]; 100 mg/kg os): 2.10 | Non injected paw, 18th day, inhibition % ([2]; 200 mg/kg os): 47% | Non injected paw, 18th day, volume ([2]; 200 mg/kg os): 1.93 | Inhibition %, injected paw (3rd day) ([3]; 100 mg/kg os): 30% | Inhibition %, non injected paw (14th day) ([3]; 100 mg/kg os): 33% | Paw volume, injected paw (3rd day) ([3]; 100 mg/kg os): 1.65 mL | Paw volume, non injected paw (14th day) ([3]; 100 mg/kg os): 1.49 mL | Inhibition %, injected paw (3rd day) ([3]; 200 mg/kg os): 40% | Inhibition %, non injected paw (14th day) ([3]; 200 mg/kg os): 63% | Paw volume, injected paw (3rd day) ([3]; 200 mg/kg os): 1.53 mL | Paw volume, non injected paw (14th day) ([3]; 200 mg/kg os): 1.26 mL | Inhibition of the carrageenin induced edema ([4]; 50 mg/kg os): 12% | Inhibition of the carrageenin induced edema ([4]; 100 mg/kg os): 35% | Inhibition of the carrageenin induced edema ([4]; 200 mg/kg os): 43%

COC(=O)c1ccccc1O [Methyl salicylate, methyl salicylate]
LD50 (in vivo): 1160 mg/kg and 7600 µmol/kg | ED50 [6]: 289 mg/kg and 1900 µmol/kg

O=C(O)c1ccccc1Nc1cccc(C(F)(F)F)c1 [Flufenamic acid, flufenamic acid]
LD50 (in vivo): 875 mg/kg and 3100 µmol/kg | ED50 [6]: 112 mg/kg and 400 µmol/kg
